Results on eleven molecules are retold here after ChEMBL document CHEMBL1201862, “PubChem BioAssay data set” (2004).

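Tested at 5 concentrations; 48 h exposure; 96-well plates; endpoints linearly interpolated, else capped at highest concentration. Here, GI50 denotes the concentration required for 50% inhibition of growth.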 Active and inactive are the calls of the source. No stated cut-off is given here; in the data, active = GI50 up to about 1.1 µM and inactive = higher. Some results are limits rather than exact numbers.

Some test systems named below: UACC-62; MOLT-4; Malme-3M; MDA-MB-231; SF-539; HOP-92; A549; OVCAR-4; A498; EKVX; OVCAR-5; LOX IMVI; MCF7; HOP-62; U-251; UO-31; IGROV-1; COLO 205; HCC 2998; PC-3.
Common to all, as to assay: NCI tumour cell line growth inhibition, 48 h

For the molecule `N[C@H](Cc1ccc2oc3cc(=O)c4ccccc4c-3nc2c1)C(=O)O`, the GI50 with UACC-62 is 26.7 µM (inactive); in the assay with MOLT-4, 37.8 µM (inactive); in the assay with Malme-3M, 21 µM (inactive); in the assay with MDA-MB-231, 62.7 µM (inactive); in the assay with SF-539 it was 42.8 µM (inactive); in the assay on HOP-92 it was > 100 µM (inactive). The GI50 is 33.7 µM (inactive) in the assay on A549; > 100 µM (inactive) in the assay with OVCAR-4; 49.7 µM (inactive) with A498; > 100 µM (inactive) with EKVX; 65.9 µM (inactive) in the assay on OVCAR-5; 33.2 µM (inactive) in the assay with LOX IMVI. The GI50 in the assay with MCF7 is 28.5 µM (inactive); in the assay with HOP-62, 46.5 µM (inactive); with U-251, 98.4 µM (inactive); in the assay with UO-31, > 100 µM (inactive); in the assay with IGROV-1, 32.3 µM (inactive); in the assay on COLO 205, 30.3 µM (inactive).

For the molecule `COc1cc(/C=C2\C(=O)N(c3ccccc3Cl)C(c3ccccc3)S2(=O)=O)cc(OC)c1OC` (stereo not given), the GI50 in the assay with UACC-62 is 31.9 µM (inactive); in the assay on MOLT-4, 15.3 µM (inactive); with Malme-3M, 28.7 µM (inactive); with MDA-MB-231 it was 49.9 µM (inactive); with SF-539 it was 20 µM (inactive); with HOP-92 it was 41.3 µM (inactive). For the same molecule, the GI50 in the assay with A549 is 36.8 µM (inactive); with OVCAR-4, 57.3 µM (inactive); in the assay on A498, > 100 µM (inactive); in the assay with EKVX it was 41.4 µM (inactive); in the assay on OVCAR-5 it was 20.9 µM (inactive); in the assay with LOX IMVI it was 21.7 µM (inactive). In addition, the GI50 was 25.6 µM (inactive) with MCF7; 53 µM (inactive) in the assay with HOP-62; 24.2 µM (inactive) with U-251; > 100 µM (inactive) in the assay on HCC 2998; 30.3 µM (inactive) in the assay with UO-31; 36.4 µM (inactive) in the assay with COLO 205.

As to `CC(=O)Oc1cc2c(n(C)c1=O)-c1ccccc1C2`, the GI50 in the assay on UACC-62 is 75.3 µM (inactive); with MOLT-4 it was 66.8 µM (inactive); in the assay with Malme-3M it was 31.8 µM (inactive); with MDA-MB-231, 61.4 µM (inactive); with HOP-92, 46.7 µM (inactive); in the assay with A549 it was 63.7 µM (inactive). Besides, the GI50 in the assay with OVCAR-4 was 32.5 µM (inactive); in the assay on A498 it was 97.7 µM (inactive); in the assay on OVCAR-5, > 100 µM (inactive); in the assay on LOX IMVI, 29.4 µM (inactive); in the assay with HOP-62 it was 81.7 µM (inactive); in the assay on U-251, 75.9 µM (inactive). Also, the GI50 in the assay with HCC 2998 is 85.9 µM (inactive); in the assay with PC-3, 40.8 µM (inactive); in the assay with UO-31, 41 µM (inactive); in the assay on IGROV-1, 36.2 µM (inactive); in the assay on COLO 205, 39.4 µM (inactive).

For `N#Cc1c(-c2ccccc2)nc(-c2ccccc2)sc1=S`, the GI50 in the assay on UACC-62, with Malme-3M, in the assay on MDA-MB-231, in the assay on SF-539, in the assay with HOP-92 and with A549 was > 100 µM (inactive) throughout. The GI50 in the assay on OVCAR-4, in the assay on A498, with EKVX, in the assay with OVCAR-5, in the assay on LOX IMVI and with MCF7 was > 100 µM (inactive) each time. Further, the GI50 in the assay on HOP-62, with U-251, in the assay on HCC 2998, in the assay on UO-31, in the assay on IGROV-1 and in the assay with COLO 205 was > 100 µM (inactive) in each case.

Turning to `COc1ccc2nc3n(c2c1)C(c1c(Cl)cccc1Cl)SC3` (stereo not given), the GI50 was > 100 µM (inactive) in the assay with UACC-62; > 100 µM (inactive) with MOLT-4; > 100 µM (inactive) in the assay with HOP-92; > 100 µM (inactive) in the assay on A549; 24.7 µM (inactive) in the assay with OVCAR-4; > 100 µM (inactive) with A498. Moreover, the GI50 in the assay with EKVX was > 100 µM (inactive); with OVCAR-5, > 100 µM (inactive); with LOX IMVI, > 100 µM (inactive); with MCF7 it was > 100 µM (inactive); with HOP-62, 59.7 µM (inactive); in the assay on U-251 it was > 100 µM (inactive). Further, the GI50 in the assay on HCC 2998, with PC-3, in the assay on UO-31, with IGROV-1 and in the assay on COLO 205 was > 100 µM (inactive) in each case.

On to `Cn1nc(S(N)(=O)=O)s/c1=N/C(N)=S`, for which the GI50 in the assay with UACC-62, in the assay on MOLT-4, with Malme-3M, with MDA-MB-231, in the assay on SF-539 and with HOP-92 was > 100 µM (inactive) throughout. The GI50 in the assay with A549, in the assay on OVCAR-4, in the assay with A498, in the assay with EKVX, with OVCAR-5 and in the assay on LOX IMVI was > 100 µM (inactive) in each case. For the same molecule, the GI50 in the assay with MCF7, with HOP-62, in the assay on U-251, in the assay on HCC 2998, in the assay on UO-31 and in the assay with COLO 205 was > 100 µM (inactive) each time.

Consider `CN(C)CCCNC(=O)N/N=C/c1ccc(O)cc1`, for which the GI50 with UACC-62, in the assay with MOLT-4, in the assay with Malme-3M, in the assay with MDA-MB-231, in the assay with SF-539 and with A549 was > 100 µM (inactive) each time. Besides, the GI50 in the assay with A498, in the assay on OVCAR-5, with MCF7, in the assay on HOP-62, in the assay on U-251 and in the assay on HCC 2998 was > 100 µM (inactive) in each case. Also, the GI50 in the assay on PC-3, with UO-31, with IGROV-1 and in the assay on COLO 205 was > 100 µM (inactive) in each case.

Consider `CO/C(=N\N=C\c1cc(OC)ccc1OC)c1ccncc1`, for which the GI50 in the assay on MOLT-4, with Malme-3M, in the assay on SF-539, with A549, in the assay with A498 and in the assay with OVCAR-5 was > 10 µM (inactive) each time. Further, the GI50 in the assay on LOX IMVI, in the assay with MCF7, in the assay with HOP-62, in the assay with U-251, in the assay with HCC 2998 and in the assay with PC-3 was > 10 µM (inactive) throughout. Moreover, the GI50 in the assay with UO-31, in the assay with IGROV-1 and in the assay on COLO 205 was > 10 µM (inactive) throughout.

In the case of `COc1ccc(CC(O)CN2CCOCC2)cc1` (stereo not given), the GI50 with UACC-62, with MOLT-4, in the assay on Malme-3M, in the assay on MDA-MB-231, in the assay on HOP-92 and in the assay on A549 was > 100 µM (inactive) each time. Further, the GI50 with OVCAR-4, in the assay with A498, with EKVX, in the assay with OVCAR-5, in the assay on LOX IMVI and with HOP-62 was > 100 µM (inactive) in each case. The GI50 with U-251, with PC-3, in the assay on UO-31 and in the assay on IGROV-1 was > 100 µM (inactive) in each case.

On to `O=c1c2cc([N+](=O)[O-])ccc2n2n1CCCCC2`, for which the GI50 in the assay with UACC-62, in the assay with MOLT-4, in the assay with Malme-3M, in the assay on MDA-MB-231, in the assay on SF-539 and in the assay on HOP-92 was > 100 µM (inactive) in each case. For the same molecule, the GI50 in the assay on A549, with OVCAR-4, in the assay on A498, in the assay on EKVX, with OVCAR-5 and with LOX IMVI was > 100 µM (inactive) throughout. The GI50 in the assay with HOP-62, in the assay on U-251, in the assay with HCC 2998, with PC-3, with UO-31 and in the assay on IGROV-1 was > 100 µM (inactive) throughout. Moreover, in the assay on COLO 205, the GI50 is > 100 µM (inactive).

Regarding `NS(=O)(=O)c1ccc(CNc2nc(-c3cccs3)nc3ccc(I)cc23)cc1`, the GI50 is 16.5 µM (inactive) in the assay with UACC-62; 21.9 µM (inactive) in the assay with MOLT-4; 14.7 µM (inactive) with Malme-3M; 11.2 µM (inactive) in the assay with SF-539; 16 µM (inactive) in the assay with HOP-92; 12.5 µM (inactive) with A549. The GI50 is 10.7 µM (inactive) in the assay with OVCAR-4; 3.85 µM (inactive) in the assay with EKVX; 19.2 µM (inactive) in the assay on OVCAR-5; 14.8 µM (inactive) with LOX IMVI; 0.573 µM (active) in the assay on MCF7; 21.4 µM (inactive) in the assay on HOP-62. Further, the GI50 in the assay with U-251 was 18.1 µM (inactive); in the assay on HCC 2998, 13.8 µM (inactive); in the assay with PC-3, 19.4 µM (inactive); with UO-31, 2.11 µM (inactive); in the assay with IGROV-1, 12.2 µM (inactive); in the assay on COLO 205, 16.1 µM (inactive).
